ChEMBL document CHEMBL3045460, “Antifungal, mosquito deterrent, and larvicidal activity of N-(benzylidene)-3-cyclohexylpropionic acid hydrazide derivatives” (2013)
In brackets after ≈: the same amount, converted by molar mass. Activity calls are given as the source filed them. The calls are words filed in the database; no cut-off is given here.

Assays:
Aedes aegypti [1] = assay: Insecticidal activity against female adult Aedes aegypti fed on CPDA-1+ATP assessed as biting deterrence activity at 25 nmol/cm2 by six-celled K & D module bioassay; type: functional
Fusarium oxysporum = assay: Antifungal activity against Fusarium oxysporum assessed as growth inhibition at 0.3 to 30 uM after 48 to 72 hr by 96-well microdilution broth assay; type: functional, organism-based
Botrytis cinerea = assay: Antifungal activity against Botryotinia fuckeliana assessed as growth inhibition at 0.3 to 30 uM after 48 to 72 hr by 96-well microdilution broth assay; type: functional, organism-based
[2] = tested on: Colletotrichum gloeosporioides; assay: Antifungal activity against Colletotrichum gloeosporioides assessed as growth inhibition at 0.3 to 30 uM after 48 to 72 hr by 96-well microdilution broth assay; type: functional, organism-based
Colletotrichum fragariae = assay: Antifungal activity against Colletotrichum fragariae assessed as growth inhibition at 0.3 to 30 uM after 48 to 72 hr by 96-well microdilution broth assay; type: functional, organism-based
Colletotrichum acutatum = assay: Antifungal activity against Colletotrichum acutatum assessed as growth inhibition at 0.3 to 30 uM after 48 to 72 hr by 96-well microdilution broth assay; type: functional, organism-based
Aedes aegypti [3] = assay: Insecticidal activity against first-instar larval stage of Aedes aegypti assessed as mortality after 48 hr; type: functional
Aedes aegypti [4] = assay: Insecticidal activity against first-instar larval stage of Aedes aegypti assessed as mortality at 1.6 ppm after 48 hr; type: functional
Aedes aegypti [5] = assay: Insecticidal activity against first-instar larval stage of Aedes aegypti assessed as mortality after 24 hr; type: functional
Aedes aegypti [6] = assay: Insecticidal activity against first-instar larval stage of Aedes aegypti assessed as mortality at 0.8 ppm after 48 hr; type: functional
Aedes aegypti [7] = assay: Insecticidal activity against first-instar larval stage of Aedes aegypti assessed as mortality at 1.6 ppm after 24 hr; type: functional, organism-based
Aedes aegypti [8] = assay: Insecticidal activity against first-instar larval stage of Aedes aegypti assessed as mortality at 25 ppm after 24 hr; type: functional
Aedes aegypti [9] = assay: Insecticidal activity against first-instar larval stage of Aedes aegypti assessed as mortality at 0.8 ppm after 24 hr; type: functional, organism-based
Aedes aegypti [10] = assay: Insecticidal activity against first-instar larval stage of Aedes aegypti assessed as mortality at 50 ppm after 24 hr; type: functional
Aedes aegypti [11] = assay: Insecticidal activity against first-instar larval stage of Aedes aegypti assessed as mortality at 100 ppm after 24 hr; type: functional
Diaporthe ampelina = assay: Antifungal activity against Diaporthe ampelina assessed as growth inhibition at 30 uM after 144 hr by 96-well microdilution broth assay; type: functional; conditions: read-out: GI
Phomopsis obscurans = assay: Antifungal activity against Phomopsis obscurans assessed as growth inhibition at 30 uM after 144 hr by 96-well microdilution broth assay; type: functional; conditions: Paraphomopsis obscurans, read-out: GI

| Compound | Activity (Aedes aegypti [1]) [%] | growth inhibition (GI) (Fusarium oxysporum) | growth inhibition (GI) (Botrytis cinerea) | growth inhibition (GI) [2] | growth inhibition (GI) (Colletotrichum fragariae) | growth inhibition (GI) (Colletotrichum acutatum) | inhibition of growth at 30 µM (Phomopsis obscurans) [%] | other results |
| --- | --- | --- | --- | --- | --- | --- | --- | --- |
| O=C(CCC1CCCCC1)N/N=C\c1ccc(Cl)cc1 | >50 | inactive | inactive | inactive | inactive | inactive |  |  |
| O=C(CCC1CCCCC1)N/N=C\c1ccc(O)cc1 | 22 | inactive | inactive | inactive | inactive | inactive |  |  |
| CCN(CC)C(=O)c1cccc(C)c1 [DIETHYLTOLUAMIDE] | 80 |  |  |  |  |  |  |  |
| CC(C)c1ccc(/C=N\NC(=O)CCC2CCCCC2)cc1 | 22 | inactive | inactive | inactive | inactive | inactive | 99.5 | LD90 (Aedes aegypti [3]): 19.1 ppm; LC50 (Aedes aegypti [3]; Aedes aegypti, Instar larval stage, 48 h, read-out: LD50 (the source's name)): 4.35 µg/mL (≈ 14.5 µM); mortality at 1.6 ppm (Aedes aegypti [4]): 14.7%; LD90 (Aedes aegypti [5]): 297.8 ppm; LC50 (Aedes aegypti [5]; Aedes aegypti, Instar larval stage, 24 h, read-out: LD50 (the source's name)): 57.4 µg/mL (≈ 191 µM); mortality at 0.8 ppm (Aedes aegypti [6]): 4%; Activity (Aedes aegypti [7]): inactive; mortality at 25 ppm (Aedes aegypti [8]): 30%; Activity (Aedes aegypti [9]): inactive; mortality at 50 ppm (Aedes aegypti [10]): 70%; mortality at 100 ppm (Aedes aegypti [11]): 80%; inhibition of growth at 30 µM (Diaporthe ampelina): 94% |
| O=C(CCC1CCCCC1)N/N=C\c1ccc(Br)cc1 | >50 | inactive | inactive | inactive | inactive | inactive |  |  |
| O=C(CCC1CCCCC1)N/N=C\c1ccccc1 | >50 | inactive | inactive | inactive | inactive | inactive |  |  |
| COc1ccc(/C=N\NC(=O)CCC2CCCCC2)cc1 | 22 | inactive | inactive | inactive | inactive | inactive | 74.1 |  |
| O=C(CCC1CCCCC1)N/N=C\c1ccc([N+](=O)[O-])cc1 | 22 | inactive | inactive | inactive | inactive | inactive |  |  |
| O=C(CCC1CCCCC1)N/N=C\c1ccc(F)cc1 |  | inactive | inactive | inactive | inactive | inactive | 86.9 | inhibition of growth at 30 µM (Diaporthe ampelina): 83.6% |
| O=C1C2CC=CCC2C(=O)N1SC(Cl)(Cl)Cl (centres undefined) [CAPTAN] |  |  |  |  |  |  | 100 | inhibition of growth at 30 µM (Diaporthe ampelina): 99.2% |
| Cc1ccc(/C=N\NC(=O)CCC2CCCCC2)cc1 | 22 | inactive | inactive | inactive | inactive | inactive | 86.7 |  |
| CN(C)c1ccc(/C=N\NC(=O)CCC2CCCCC2)cc1 | 22 | inactive | inactive | inactive | inactive | inactive |  |  |
